Where two headings read alike, the source gives them in different places.
Tested on: M. furfur
Source text: The time-kill assays were used to evaluate efficacy of antimicrobial agents, either singly or in combination, and the results can help in establishing the dose and/or time of application of the active. The time-kill assays were used to study both concentration-dependent and time-dependent antimicrobial action.
M. furfur cells were suspended in Sabouraud Dextrose Broth (SDB) at inoculum concentration of 7×10^7 cells/ml. Cells were taken from a freshly growing (3-7 days old) plate and cell suspension was vortexed to remove the cell clumps as much as possible. Sterile media were supplemented with chloramphenicol (0.25 mg/ml), cycloheximide (0.04 mg/ml) and olive oil (2%). The media were then supplemented with appropriate concentrations (two-fold serial dilutions using SDB) of unmodified zinc pyrithione API (10 μg/ml and 50 μg/ml) with different concentrations of Capmul 908-P (0%, 1%, 3%, 5% & 9%). The cultures were incubated on a tube rotator at 34° C. in CO2 incubator.
To measure the colony forming units (CFU), at different time points, aliquots (50 μl) of Malassezia cultures were serially diluted with SDBT medium (SDB containing 0.1% Triton X-100) and plated on SDA plates. The plates are incubated at 34° C. in CO2 incubator for 3 days. The viable colonies were counted and converted to CFU/ml.

## zinc pyrithione [ZPT]
ZPT 10 μg/ml, Capmul 908-P 30 μg/ml, 6 hrs
  Log CFU Count of M. furfur: 6.50
ZPT 10 μg/ml, Capmul 908-P 30 μg/ml, 24 hrs
  Log CFU Count of M. furfur: 5.94
ZPT 10 μg/ml, Capmul 908-P 30 μg/ml, 48 hrs
  Log CFU Count of M. furfur: 5.06
ZPT 10 μg/ml, Capmul 908-P 50 μg/ml, 6 hrs
  Log CFU Count of M. furfur: 6.37
ZPT 10 μg/ml, Capmul 908-P 50 μg/ml, 24 hrs
  Log CFU Count of M. furfur: 5.57
ZPT 10 μg/ml, Capmul 908-P 50 μg/ml, 48 hrs
  Log CFU Count of M. furfur: 4.80
ZPT 10 μg/ml, Capmul 908-P 90 μg/ml, 6 hrs
  Log CFU Count of M. furfur: 6.33
ZPT 10 μg/ml, Capmul 908-P 90 μg/ml, 24 hrs
  Log CFU Count of M. furfur: 5.55
ZPT 10 μg/ml, Capmul 908-P 90 μg/ml, 48 hrs
  Log CFU Count of M. furfur: 4.77
ZPT 10 μg/ml, Capmul 908-P nil, 6 hrs
  Log CFU Count of M. furfur: 6.56
ZPT 10 μg/ml, Capmul 908-P nil, 24 hrs
  Log CFU Count of M. furfur: 6.13
ZPT 10 μg/ml, Capmul 908-P nil, 48 hrs
  Log CFU Count of M. furfur: 5.27
ZPT 50 μg/ml, Capmul 908-P 30 μg/ml, 6 h
  Log CFU Count of M. furfur: 6.06
ZPT 50 μg/ml, Capmul 908-P 30 μg/ml, 24 h
  Log CFU Count of M. furfur: 4.69
ZPT 50 μg/ml, Capmul 908-P 30 μg/ml, 48 h
  Log CFU Count of M. furfur: 3.25
ZPT 50 μg/ml, Capmul 908-P 50 μg/ml, 6 h
  Log CFU Count of M. furfur: 5.94
ZPT 50 μg/ml, Capmul 908-P 50 μg/ml, 24 h
  Log CFU Count of M. furfur: 4.62
ZPT 50 μg/ml, Capmul 908-P 50 μg/ml, 48 h
  Log CFU Count of M. furfur: 3.04
ZPT 50 μg/ml, Capmul 908-P 90 μg/ml, 6 h
  Log CFU Count of M. furfur: 5.52
ZPT 50 μg/ml, Capmul 908-P 90 μg/ml, 24 h
  Log CFU Count of M. furfur: 3.63
ZPT 50 μg/ml, Capmul 908-P 90 μg/ml, 48 h
  Log CFU Count of M. furfur: 2.08
ZPT 50 μg/ml, Capmul 908-P nil, 6 h
  Log CFU Count of M. furfur: 6.43
ZPT 50 μg/ml, Capmul 908-P nil, 24 h
  Log CFU Count of M. furfur: 5.39
ZPT 50 μg/ml, Capmul 908-P nil, 48 h
  Log CFU Count of M. furfur: 3.92
time-kill, Tables 12 and 13
  Anti-microbial activity towards M. furfur with increasing concentration of propylene glycol monocaprylate (Capmul 908-P): gets potentiated
